In patent US10947251B2, “Therapeutic compounds and methods of use thereof” (GENENTECH, INC., priority 2018, dated 2021):

Assays:
hNav1.7 [1] = biological target: T1, hNav1.7 (Homo sapiens (Human), UniProt Q15858); experiment: Electrophysiological assay (EP), voltage clamp on Syncropatch 384PE; assay type: cell-based; settings: CHO cells expressing Nav1.7, holding potential −50 mV, 7.5 min compound incubation; read-out: EP_SP hNav1.7 EVO IC50
Text: Example 39C. Electrophysiological Assay (EP) (In Vitro Assay)
Patch voltage clamp electrophysiology allows for the direct measurement and quantification of block of voltage-gated sodium channels (NaV's), and allows the determination of the time- and voltage-dependence of block which has been interpreted as differential binding to the resting, open, and inactivated states of the sodium channel (Hille, B., Journal of General Physiology (1977), 69: 497-515).
The following voltage clamp electrophysiology studies were performed on representative compounds using cells heterologously expressing Nav1.7 or Nav1.5 channels. cDNAs for Nav1.7 (NM_002977) and Nav1.5 (AC137587) were stably expressed in Chinese Hamstr Ovary (CHO) cells and CHL (Chinese Hamster Lung) cells respectively. Sodium currents were measured in the whole-cell configuration using Syncropatch 384PE (Nanlon Technologies, Germany). 1NPC®-384 chips with custom medium resistance and single hole mode are used. Internal solution consists of (in mM): 110 […], 10 CsCl, 20 EGTA, and 10 Hepes (pH adjusted to 7.2); and external solution contains (in mM): 60 NMDG, 80 NaCl, 4 KCl, 1 MgCl2, 2 CaCl2, 2 D-Glucose monohydrate, 10 Hepes (pH adjusted to 7.4 with NaOH).
After system flushing, testing compounds are dissolved in external solution containing 0.1% Pluronic F-127. The chip is moved into the measuring head and the instrument primes the chip with external and internal solutions. 10 l cells are added to the chip from a cell hotel, and a negative pressure of −50 mBar is applied to form a seal. Following treatment with seal enhancer solution and wash-off with external solution, negative pressure of −250 mbar is applied for 1 second to achieve the whole-cell configuration, followed by three washing steps in external solution. 20 µl of compounds is added to 40 µl in each well (1:3 dilution of compounds), and after mixing, 20 l is removed so the volume is retained at 40 ul. After approximately 13 minutes recordings, 20 µl/well of 2 uM TTX, or 333 uM Tetracaine (for Nav1.5) is added to achieve full block.
For voltage protocol, an holding potential of −50 mV is applied during the whole experiment. A depolarizing step is applied to −10 mV for 10 ms, followed by a hyperpolarization step to −150 mV for 20 ms to allow channel recovery from inactivation. A second depolarizing step is applied from −150 mV to −10 mV for 10 ms, where currents were measured to derive blocking effects of compounds. Inhibition is determined based on 7.5 min of compound incubation.

hNav1.7 [2] = biological target: T1, hNav1.7; experiment: Tritiated compound binding to membranes from cells heterologously expressing hNav1.7 and the β1 subunit (LBA); settings: competitive binding vs [3H]compound, membranes with hNav1.7 and β1 subunit; read-out: Nav1.7 LBA EVO IC50
Method: Example 39A. Tritiated Compound Binding to Membranes Isolated from Cells that Heterologously Express hNav1.7 and the β1 Subunit
Preparation of membranes containing recombinantly expressed sodium channels: Frozen recombinant cell pellets were thawed on ice and diluted to 4 times the cell pellet weight with ice cold 50 mM Tris HCl, pH 7.4 buffer. The cell suspensions were homogenized on ice using a motorized glass dounce homogeniser. Homogenates were further diluted 8.4 times with ice cold 50 mM Tris HCl, pH 7.4 buffer and then centrifuged at 200×g at 4° C. for 15 min. The supernatants were collected and centrifuged at 10000×g at 4° C. for 50 min. The pellets were then re-suspended in 100 mM NaCl, 20 mM Tris HCl, pH 7.4 buffer containing 1% v/v protease inhibitors (Calbiochem) and re-homogenized on ice. The homogenized membranes were then processed through a syringe equipped with a 26 gauge needle. Protein concentrations were determined by Bradford Assay and the membranes were stored at −80° C.
Saturation experiments. A competitive NaV1.7 inhibitor having a methyl group was tritiated. Three tritiums were incorporated in place of methyl hydrogens to generate [^3H]compound. Binding of this radioligand was performed in 5 mL borosilicate glass test tubes at room temperature. Binding was initiated by adding membranes to increasing concentrations of [^3H]compound in 100 mM NaCl, 20 mM Tris HCl, pH 7.4 buffer containing 0.01% w/v bovine serum albumin (BSA) for 18 h. Non-specific binding was determined in the presence of 1 μM unlabeled compound. After 18 h, the reactants were filtered through GF/C glass fiber filters presoaked in 0.5% w/v polyethylene imine. Filters were washed with 15 mL ice cold 100 mM NaCl, 20 mM Tris HCl, pH7.4 buffer containing 0.25% BSA to separate bound from free ligand. [^3H]compound bound to filters was quantified by liquid scintillation counting.
Binding reactions were performed in 96-well polypropylene plates at room temperature for 18 h. In 360 μL, membranes were incubated with 100 pM [^3H]compound and increasing concentrations of Test Compound. Non-specific binding was defined in the presence of 1 μM unlabeled compound. Reactions were transferred and filtered through 96-well glass fiber/C filter plates presoaked with 0.5% polyethylene imine. The filtered reactions were washed 5 times with 200 μL ice cold buffer containing 0.25% BSA. Bound radioactivity was determined by liquid scintillation counting.
For saturation experiments, non-specific binding was subtracted from total binding to provide specific binding and these values were recalculated in terms of pmol ligand bound per mg protein. Saturation curves were constructed and dissociation constants were calculated using the single site ligand binding model: Beq=(Bmax*X)/(X+Kd), where Beq is the amount of ligand bound at equilibrium, Bmax is the maximum receptor density, Kd is the dissociation constant for the ligand, and X is the free ligand concentration. For competition studies percent inhibition was determined and IC50 values were calculated using a 4 parameter logistic model (% inhibition=(A+((B−A)/(1+((x/C)^D)))) using XLfit, where A and B are the maximal and minimum inhibition respectively, C is the IC50 concentration and D is the (Hill) slope.
Example 39B. Tritiated Compound Binding to Membranes Isolated from Cells that Heterologous Express hNav1.7 and the β1 Subunit
Following the procedure described in Example 39A, and making modifications as required to: centrifuge supernatants at 100000×g instead of 10000×g; re-suspend pellets in a buffer containing 0.01% BSA in addition to 100 mM NaCl, 20 mM Tris HCl, pH 7.4 buffer, and 1% v/v […]; and storing membranes at −80° C. in single use aliquots instead of pooled.
Saturation experiments: Following the procedure described in Example 243A, and making modifications as required to incubate [3H]compound for 3 hours instead of 18 hours. […]

Compound | IC50 (hNav1.7 [1]) | IC50 (hNav1.7 [2])
COc1cc(-c2cccc(C(F)(F)F)c2)c(F)cc1N1C(=O)CC[C@H]2CN(S(=O)(=O)Nc3ccon3)CCC21 (stereo in doubt) [Example 36, (4aS,8aS)-1-(2-fluoro-5-methoxy-3′-(trifluoromethyl)-[1,1′-biphenyl]-4-yl)-N-(isoxazol-3-yl)-2-oxooctahydro-1,6-naphthyridine-6(2H)-sulfonamide] | 2.19 nM | 20.7 nM
COc1cc(-c2cccc(C(F)(F)F)c2)c(F)cc1N1C(=O)CC[C@H]2CN(S(=O)(=O)Nc3ccon3)CCC21 (stereo in doubt) [Example 37, (4aS,8aR)-1-(2-fluoro-5-methoxy-3′-(trifluoromethyl)-[1,1′-biphenyl]-4-yl)-N-(isoxazol-3-yl)-2-oxooctahydro-1,6-naphthyridine-6(2H)-sulfonamide] | 12.9 nM | 761 nM
COc1cc(-c2ccc(F)c(C(F)(F)F)c2)c(F)cc1N1C(=O)CO[C@@H]2CN(S(=O)(=O)Nc3ccon3)CC[C@H]21 [Example 1, (4aR,8aR)-1-(2,4′-difluoro-5-methoxy-3′-(trifluoromethyl)-[1,1′-biphenyl]-4-yl)-N-(isoxazol-3-yl)-2-oxohexahydro-1H-pyrido[3,4-b][1,4]oxazine-6(7H)-sulfonamide] | 1.12 nM | 44.3 nM
COc1cc(-c2ccc(F)c(C(F)(F)F)c2)c(F)cc1N1C(=O)CO[C@H]2CN(S(=O)(=O)Nc3ccon3)CC[C@@H]21 [Example 2, (4aS,8aS)-1-(2,4′-difluoro-5-methoxy-3′-(trifluoromethyl)-[1,1′-biphenyl]-4-yl)-N-(isoxazol-3-yl)-2-oxohexahydro-1H-pyrido[3,4-b][1,4]oxazine-6(7H)-sulfonamide] | 0.915 nM | 38.4 nM
COc1cc(-c2cccc(C(F)(F)F)c2)c(F)cc1N1C(=O)CO[C@@H]2CN(S(=O)(=O)Nc3ccon3)CC[C@H]21 [Example 3, (4aR,8aR)-1-(2-fluoro-5-methoxy-3′-(trifluoromethyl)-[1,1′-biphenyl]-4-yl)-N-(isoxazol-3-yl)-2-oxohexahydro-1H-pyrido[3,4-b][1,4]oxazine-6(7H)-sulfonamide] | 2.26 nM | 67 nM
COc1cc(-c2cccc(C(F)(F)F)c2)c(F)cc1N1C(=O)CO[C@H]2CN(S(=O)(=O)Nc3ccon3)CC[C@@H]21 [Example 4, (4aS,8aS)-1-(2-fluoro-5-methoxy-3′-(trifluoromethyl)-[1,1′-biphenyl]-4-yl)-N-(isoxazol-3-yl)-2-oxohexahydro-1H-pyrido[3,4-b][1,4]oxazine-6(7H)-sulfonamide] | 3.52 nM | 60 nM
COc1cc(-c2cc(F)cc(C(F)(F)F)c2)c(F)cc1N1C(=O)CO[C@@H]2CN(S(=O)(=O)Nc3ccon3)CC[C@H]21 [Example 5, (4aR,8aR)-1-(2,3′-difluoro-5-methoxy-5′-(trifluoromethyl)-[1,1′-biphenyl]-4-yl)-N-(isoxazol-3-yl)-2-oxohexahydro-1H-pyrido[3,4-b][1,4]oxazine-6(7H)-sulfonamide] | 2.79 nM | 79 nM
COc1cc(-c2cc(F)cc(C(F)(F)F)c2)c(F)cc1N1C(=O)CO[C@H]2CN(S(=O)(=O)Nc3ccon3)CC[C@@H]21 [Example 6, (4aS,8aS)-1-(2,3′-difluoro-5-methoxy-5′-(trifluoromethyl)-[1,1′-biphenyl]-4-yl)-N-(isoxazol-3-yl)-2-oxohexahydro-1H-pyrido[3,4-b][1,4]oxazine-6(7H)-sulfonamide] | 1.84 nM | 52.9 nM
COc1cc(-c2cc(C(F)(F)F)ccc2F)c(F)cc1N1C(=O)CO[C@@H]2CN(S(=O)(=O)Nc3ccon3)CC[C@H]21 [Example 7, (4aR,8aR)-1-(2,2′-difluoro-5-methoxy-5′-(trifluoromethyl)-[1,1′-biphenyl]-4-yl)-N-(isoxazol-3-yl)-2-oxohexahydro-1H-pyrido[3,4-b][1,4]oxazine-6(7H)-sulfonamide] | 5.76 nM | 167 nM
